Measured values taken from publication PMC8319603, “Developing C2-Aroyl Indoles as Novel Inhibitors of IDO1 and Understanding Their Mechanism of Inhibition via Mass Spectroscopy, QM/MM Calculations and Molecular Dynamics Simulation” (Frontiers in Chemistry, 2021).
pIC50: −log10 of the molar value. Values joined by “and” are separate entries in the source; they are usually repeats but may differ in a detail not shown here. Equal entries are not always repeated.

Tests used:
[1] = target: T1, recombinant protein of human TDO2 enzyme (Homo sapiens, UniProt P48775); test: TDO2 enzymatic assay in vitro (kynurenine formation, absorbance 492 nm); assay type: biochemical; conditions: read-out: IC50 against TDO2
T1 construct: purchased Biovision CSB-YP023351HU
T1 sequence (P48775 whole entry): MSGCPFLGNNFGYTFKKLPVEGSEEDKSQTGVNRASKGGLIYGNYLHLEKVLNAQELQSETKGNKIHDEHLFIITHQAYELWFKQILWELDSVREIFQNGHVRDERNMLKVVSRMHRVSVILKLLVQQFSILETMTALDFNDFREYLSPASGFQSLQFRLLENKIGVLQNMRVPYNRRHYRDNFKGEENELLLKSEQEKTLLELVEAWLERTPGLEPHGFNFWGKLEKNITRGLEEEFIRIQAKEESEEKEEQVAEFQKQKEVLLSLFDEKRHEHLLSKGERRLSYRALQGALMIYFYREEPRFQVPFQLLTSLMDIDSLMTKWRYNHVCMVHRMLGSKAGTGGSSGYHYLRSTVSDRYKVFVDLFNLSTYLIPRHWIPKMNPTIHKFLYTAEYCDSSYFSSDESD
Protocol: The recombinant human IDO/TDO protein were purchased from Biovision (Catalog no.: P1096 human recombinant IDO1 and CSB-YP023351HU human recombinant TDO2). All the other HPLC grade solvent were purchased from Merck Pvt. Ltd. The IDO/TDO assays were performed according to the reported procedures.1 and 2, the details of which is mentioned in the SI.
20 µL of IDO1/TDO2 protein (1µg/ml concentration) was added and incubates for 10 min. After that 20 µL of 2 mM L-tryptophan was added and then treated with different test compounds concentration […]
The plate was then sealed well for 2hr incubation process at 37°C. After incubation, 40 µL of 30% TCA solution was added and again incubated for 15 min at 60 °C, the samples were centrifuged for 15 min at 13000 rpm at 4 °C. The 100 µL of supernatant was transferred in fresh 96 well plate and treated with 100 µL of freshly prepared 2% Ehlrich reagent which was then analyzed by absorbance plate reader at 492 nm to measure the extent of kynurenine formation. The DMSO content in the sample was 0.005 %. The final concentration of the compound in deep well plate was 5 µM. The IC50 values were calculated in triplicate by using GraphPadPrism […]
1. Water was substituted with L-tryphtophan
2. Water was substituted with L-tryhtophan and rhIDO/ rhTDO protein.
A = IDO activity in presence of inhibitor

[2] = Metabolic stability in human liver microsomes; assay type: in vitro ADME
Protocol: Metabolic stability in mouse, rat and human liver microsomes: Metabolic stability was defined as the percentage of parent compound lost over time in the presence of a metabolically active test system.
The incubation mixtures consisted of liver microsomes 1.0 mg microsomal protein /mL , compound 1 uM or positive control verapamil, 1 uM . The reactions were initiated by adding 1 mM NADPH.
Reactions without NADPH at 0 and 60 min were also incubated to rule out non-NADPH metabolism or chemical instability in the incubation buffer. All reactions were terminated using 200 uL of ice-cold acetonitrile containing internal standard 200 ng/mL of telmisartan at 0, 5, 15, 30 and 60 min. The vials were centrifuged at 4000 rpm for 20 min. The supernatants thus obtained were analyzed on LC-MS/MS to monitor the disappearance of compound. […]

[3] = Log D determination (octanol/buffer); assay type: physicochemical; conditions: phosphate buffer at pH 7.4
Excerpt: For the DMPK studies of the compound 8a-d we used rat as well as human plasmas. Rat plasma was purchased from Hylasco Biotechnology Pvt. Ltd.™ Hyderabad, India. We have not performed any in vivo experiments for this manuscript neither for animals nor for humans. […] Also please note the blood plasma was obtained from the blood of Dr Srinivas R Maddi, who donated it and is the co-author of this article. The DMPK studies were supplemented by kinetic solubility, Log p and Log D determinations, PAMPA permeability, Metabolic and Plasma stability in rat and human, and finally the plasma folding in rat and human. A thorough discussion of each step is mentioned in the supplementary information.
20 µL of IDO1/TDO2 protein (1µg/ml concentration) was added and incubates for 10 min. After that 20 µL of 2 mM L-tryptophan was added and then treated with different test compounds concentration (10 µM, 5 µM, 1 µM, 500 nM, 250 nM). The plate was then sealed well for 2hr incubation process at 37°C. […] The 100 µL of supernatant was transferred in fresh 96 well plate and treated with 100 µL of freshly prepared 2% Ehlrich reagent which was then analyzed by absorbance plate reader at 492 nm to measure the extent of kynurenine formation. […] The IC50 values were calculated in triplicate by using GraphPadPrism Software (GraphPadPrism. Version 5.01 program).22, 23 […]
Log P determination: The partition coefficient was determined by adding compounds to 2 mL deep well plate containing Octanol/water mixture and vortexed the plate for 2 hours at 1200 rpm on a plate shaker. […] Octanol and buffer layers were analysed by HPLC -UV by adjusting the needle height for each Octanol and buffer and the amount of compound distributed i nto each phase was calculated
Log D determination: The distribution coefficient was determined by adding compounds to 2 mL deep well plate containing Octanol/Buffer mixture and vortexed the plate for 2 hours at 1200 rpm on a plate shaker. […]
adjusting the needle height for each Octanol and buffer and the amount of compound distributed into each phase was calculated. […]

Row | pIC50 [1] | Human liver microsomal % QH (hepatic extraction ratio) [2] | Metabolic stability in liver microsomes [2] | logD [3] | SMILES
1 | 5.04 | 33% and 32.6% | moderately stable | 1.51 | CC(=O)NCCc1c(C(=O)c2ccc([N+](=O)[O-])cc2)[nH]c2ccccc12 [8d]
2 | 4.77 | 58% | moderately stable | 2.95 | COC(=O)NCCc1c(C(=O)c2ccccc2)[nH]c2ccccc12 [8e]
3 | 5.16 | 73.9% | unstable | 1.32 | CC(=O)NCCc1c(C(=O)c2cc(C(F)(F)F)cc(C(F)(F)F)c2)[nH]c2ccccc12 [8a]
